Assay results as given in patent US4956345A, “2-alkynyladenosines as antihypertensive agents” (Yamasa Shoyu Kabushiki Kaisha, priority 1985, dated 1990).
Like-named read-outs stand apart in the source and are kept apart here.

Experiments:
blood pressure in NR [1] = assay: Test 3: effect on the blood pressure in NR, intravenous; assay type: in vivo, male Wistar rats (normotensive rats; settings: 100 μg/kg, procedure of Test 2 (femoral vein), 10- to 12-week-old male Wistar rats
Description: (§1) Thirty-two-week-old male SHRs (divided into groups of three rats each) were anesthetized with urethane (1.1 g/kg, i.p.), and the blood pressure of each of the rats delivered from the common carotid artery was recorded on a polygraph through a pressure transducer (Model MPU-0.5).
(§2) The pharmaceutical preparation was administered through a cannula inserted into the femoral vein of the rat at a rate of 0.5 ml/kg, and the blood pressure was measured continuously from before administration to 30 minutes after administration.
(§3) The procedure of Test 2 was followed with 10- to 12-week-old male Wistar rats (divided into groups of three rats each) to measure the hypotensive effects of the respective pharmaceutical preparations (100 μg/kg). Simultaneously, the change in heart rate was measured. The heart rate was measured by an ictometer based on the systolic blood pressure as a trigger.

blood pressure in SHR [2] = assay: Test 1: effect on the blood pressure in SHR, oral, tail artery sphygmomanometer; assay type: in vivo, spontaneously hypertensive rats (SHR); settings: 12- to 15-week-old male SHR, maximum within 2, 4, 6 and 8 hours
Description: To twelve- to fifteen-week-old male SHRs were orally administered test compounds each suspended in 0.5% CMC/physiological saline at a rate of 2 ml/kg. The blood pressure of the thus treated SHRs was measured by means of a tail artery sphygmomanometer (supplied by Nalco Co., Model PE-300) prior to the oral administration and at 2, 4, 6 and 8 hours thereafter. Reduction in blood pressure was calculated on the basis of the values thus obtained, and the maximum reduction levels attained by the respective compounds are summarized in TABLE 2. Each test compound was evaluated with a group of 4 rats.

heart rate = assay: Test 3: change in heart rate in NR; assay type: in vivo, male Wistar rats (normotensive rats; settings: 100 μg/kg, procedure of Test 2, 10- to 12-week-old male Wistar rats
Description: as §3

blood pressure in SHR [3] = assay: Test 4: effect on the blood pressure in SHR, oral; assay type: in vivo, spontaneously hypertensive rats (SHR), male; settings: 10 mg/kg
blood pressure in NR [4] = assay: Test 4: effect on the blood pressure in NR, oral; assay type: in vivo, male Wistar rats (normotensive rats; settings: Wistar rat, 18- to 20-week-old male, 10 mg/kg
Description: Eighteen- to twenty-week-old male SHR (divided into groups of four rats each) and eighteen- to twenty-week-old male Wistar rats (divided into groups of four rats each) were orally administered with Compound 8(n=13) in the same manner as in Test 2 at a dose of 10 mg/kg, and the blood pressure of each of the rats was measured.

male Jcl:ICR mice = assay: Test 5: Acute toxicity; assay type: in vivo
Description: (§4) The acute toxicity of Compound 8(n=13) was tested with seven-week-old male Jcl:ICR mice.
(§5) The physically allowable doses of Compound 8 for intraperitoneal administration and oral administration were 800 mg/kg and 1,300 mg/kg, respectively.

Test 5: Acute toxicity = assay type: in vivo; settings: mouse, in vivo
Description: as §4, §5

blood pressure in SHR [5] = assay: Test 2: effect on the blood pressure in SHR, intravenous, anesthetized; assay type: in vivo, spontaneously hypertensive rats (SHR), male; settings: for Reduction in blood pressure (-Δmax, mmHg): 100 μg/kg, femoral vein, 32-week-old male SHR, urethane anesthesia, 30 minutes; for selectivity of hypotensive effect, SHR versus NR (in words): TABLES 3 and 4, 100 μg/kg
Description: as §1, §2

adenosine deaminase = settings: background statement; cited from earlier work
heart = settings: side effect, background statement; cited from earlier work

SMILES	Reduction in blood pressure (-Δmax, mmHg) (blood pressure in NR [1]) [mmHg]	Reduction in blood pressure (-Δmax, mmHg) (blood pressure in SHR [2]; 3 mg/kg) [mmHg]	Change in heart rate (ΔHR) (heart rate)	further results
CCCCCCCCCCCCCCCCC#Cc1nc(N)c2ncn([C@@H]3O[C@H](CO)[C@@H](O)[C@H]3O)c2n1 [Compound 10]	10	46	-5	
CCCCCCCCCCCCCCC#Cc1nc(N)c2ncn([C@@H]3O[C@H](CO)[C@@H](O)[C@H]3O)c2n1 [Compound 8]	5	48	0	selectivity of hypotensive effect on SHR, oral (in words) (blood pressure in SHR [3]; SHR versus Wistar rat, TABLE 5): tendency of Compound 8(n=13) to act selectively on SHR; Reduction in blood pressure (-Δ, mmHg), 1 hr. after administration (blood pressure in SHR [3]; SHR, 18- to 20-week-old male, 1 hr): 41 mmHg; Reduction in blood pressure (-Δ, mmHg), 2 hrs. after administration (blood pressure in SHR [3]; SHR, 18- to 20-week-old male, 2 hrs): 42 mmHg; Reduction in blood pressure (-Δ, mmHg), 1 hr. after administration (blood pressure in NR [4]; 1 hr): 16 mmHg; Reduction in blood pressure (-Δ, mmHg), 2 hrs. after administration (blood pressure in NR [4]; 2 hrs): 24 mmHg; toxicity compared with Compound 6 (in words) (male Jcl:ICR mice; compared with long-chain compound such as Compound 6): less toxic; mortality at maximum doses (male Jcl:ICR mice; mouse, in vivo): None of the mice administered with the test compound at these maximum doses, divided into groups of five mice each, died; LD50 (Test 5: Acute toxicity; ip, read-out: LD50, intraperitoneal administration): > 800 mg/kg; selectivity ratio (Test 5: Acute toxicity; po): ≥ 400; LD50 (Test 5: Acute toxicity; po, read-out: LD50, oral administration): > 1300 mg/kg; Reduction in blood pressure (-Δmax, mmHg) (blood pressure in SHR [5]): 16 mmHg; selectivity of hypotensive effect, SHR versus NR (in words) (blood pressure in SHR [5]): acted selectively on SHR
Nc1ncnc2c1ncn2[C@@H]1O[C@H](CO)[C@@H](O)[C@H]1O [adenosine]				deamination by adenosine deaminase (adenosine deaminase): rapidly deaminated by adenosine deaminase; suppressive effect on the heart (heart): strong suppressive effect on the heart
CCCCCCCCCCCCCCCC#Cc1nc(N)c2ncn([C@@H]3O[C@H](CO)[C@@H](O)[C@H]3O)c2n1 [Compound 9]	3	35	-6	
CCCC#Cc1nc(N)c2ncn([C@@H]3O[C@H](CO)[C@@H](O)[C@H]3O)c2n1 [Compound 1]	21		-48	
CCCCCCCCC#Cc1nc(N)c2ncn([C@@H]3O[C@H](CO)[C@@H](O)[C@H]3O)c2n1 [Compound 5]	24	106	-18	
CCCCC#Cc1nc(N)c2ncn([C@@H]3O[C@H](CO)[C@@H](O)[C@H]3O)c2n1 [Compound 2]	42		-36	Reduction in blood pressure (-Δmax, mmHg) (blood pressure in SHR [2]; 1 mg/kg): > 136 mmHg
CCCCCCCCCCC#Cc1nc(N)c2ncn([C@@H]3O[C@H](CO)[C@@H](O)[C@H]3O)c2n1 [Compound 6]	26	65	-12	mortality, intraperitoneal administration of 500 mg/kg (male Jcl:ICR mice; mouse, in vivo): all the five mice forming one group died; Reduction in blood pressure (-Δmax, mmHg) (blood pressure in SHR [5]): 20 mmHg; selectivity of hypotensive effect, SHR versus NR (in words) (blood pressure in SHR [5]): substantially equal hypotensive effect on SHR and NR
CCCCCCC#Cc1nc(N)c2ncn([C@@H]3O[C@H](CO)[C@@H](O)[C@H]3O)c2n1 [Compound 4]	55		-288	Reduction in blood pressure (-Δmax, mmHg) (blood pressure in SHR [2]; 1 mg/kg): 69 mmHg
CCCCCC#Cc1nc(N)c2ncn([C@@H]3O[C@H](CO)[C@@H](O)[C@H]3O)c2n1 [Compound 3]	48		-180	
CCCCCCCCCCCCC#Cc1nc(N)c2ncn([C@@H]3O[C@H](CO)[C@@H](O)[C@H]3O)c2n1 [Compound 7]	10	65	0	Reduction in blood pressure (-Δmax, mmHg) (blood pressure in SHR [5]): 21 mmHg; selectivity of hypotensive effect, SHR versus NR (in words) (blood pressure in SHR [5]): acted selectively on SHR
